Measured values published in patent US20220389515A1, “USE OF BIOMARKERS TO PREDICT CLINICAL SENSITIVITY TO 2-(4-CHLOROPHENYL)-N-((2-(2,6-DIOXOPIPERIDIN-3-YL)-1-OXOISOINDOLIN-5-YL)METHYL)-2,2-DIFLUOROACETAMIDE” (priority 2019, published 2022).

Key:
[1] = target: T1, HA-tagged GSPT1 and endogenous cereblon (Homo sapiens, UniProt P15170+Q96SW2); assay: Anti-HA immunoprecipitation of HA-tagged GSPT1 with endogenous cereblon in U937-Cas9 cells; type: cell-based; conditions: with MLN4924
T1 construct: expressed in transfected cells; host or cells: U937-Cas9 cells stably expressing HA-tagged GSPT1 (cereblon endogenous); cells treated with MLN4924 and Compound D, anti-HA immunoprecipitation

[2] = test system: ATF4 target genes ATF3, CHOP and DDIT4; assay: Quantitative RT-PCR of ATF4 target genes; type: cell-based, human
Protocol: The U937 GCN2−/− cell line is derived from a single clone of U937 parental cells stably infected with a lentiviral CRISPR vector targeting GCN2. […] Cells were incubated with DMSO or 200 nM Compound D and lysed at the indicated time points. Arrows pointing to bands in the blot on the right designate the cleaved forms of caspase-3. […] The U937 GCN2−/− cell line is derived from a single clone of U937 parental cells stably infected with a lentiviral CRISPR vector targeting GCN2. […] Cells were treated with DMSO or Compound D for 24 hours. On day 3 after Compound D treatment, cell proliferation was assessed by CTG. Result shown in all figure panels is representative of at least three biological replicates. Data in FIGS. 13C, 13D and 13E are shown as mean±SD, n=3 technical replicates.
Specifically, following incubation with DMSO or Compound D, cells were collected via centrifugation at 2000 rpm for 2 minutes. Cell pellets were then washed once in ice-cold PBS and snap-frozen in liquid nitrogen. […] The cDNA transcripts of GADPH, DDIT3 (CHOP), DDIT4 (REDD), and ATF3 were quantified by the ViiA™ 7 Real-Time PCR System using TaqMan Gene Expression Assay probes (Invitrogen). The cDNA level of various CRBN transcripts was quantified using RT^2 SYBR Green qPCR Mastermixes (Qiagen). […]

cereblon to IKZF1 = target: T2, cereblon to IKZF1 (Homo sapiens, UniProt Q96SW2); assay: Cereblon binding assay with cell extracts (anti-HA immunoprecipitation), IKZF1; conditions: wild-type FLAG-HA-CRBN; compound added directly into the binding assay
T2 construct: expressed in transfected cells; host or cells: 293FT CRBN-/- cells (transient transfection; cell extracts, anti-HA immunoprecipitation)
Text: (§1) FIG. 3A illustrates FLAG-HA tagged cereblon wild-type (FLAG-HA-CRBN) or Y384A/W386A mutant (FLAG-HA-YWAA) produced in 293FT CRBN−/− cells was used to capture V5 tagged GSPT1 (GSPT1-V5) and V5 tagged IKZF1 (IKZF1-V5) transiently expressed in 293FT CRBN−/− cells. […] FIG. 3B illustrates the surface representation of GSPT1 in complex with cereblon, DDB1 and Compound D, with DDB1 shown in purple, cereblon in blue, and GSPT1 in orange. The position of Compound D is shown with a white arrow. FIG. 3C illustrates the Fo-Fc omit electron density (green mesh) for Compound D (yellow sticks) contoured at 3.06. […] Hydrogen bond interactions between cereblon and the GPST1 β-hairpin are shown as yellow dashes. FIG. 3E illustrates details of the binding interface between cereblon and GSPT1. Compound D is represented as yellow sticks. Predicted polar interactions between Compound D and cereblon are shown as yellow dashes. FIG. 3F illustrates the immunoblot analysis of U937 parental cells or cells stably expressing HA-GSPT1-G575N. Cells were treated with DMSO or Compound D at the indicated concentrations. FIGS. 3G and 311 illustrate the immunoblot analysis (left panel) and cell proliferation (right panel) of MOLM-13 (FIG. 3G) and OCI-AML2 (FIG. 311) parental cells and cells stably expressing HA tagged GSPT1-G575N. Cells were treated with DMSO or Compound D at indicated concentrations.

GSPT1 = target: T3, GSPT1 (Homo sapiens, UniProt P15170+Q96SW2); assay: Tandem mass tag (TMT) quantitative mass spectrometry of the global proteome in KG-1; type: cell-based; conditions: 0.1 μM, 4 hours
T3 construct: endogenous in cells; host or cells: KG-1 (TMT proteomics); KG1, U937 / U937-Cas9, MOLM-13, OCI-AML2 (immunoblots)
Protocol: FIG. 2A illustrates the volcano plot of differentially abundant proteins in response to Compound D treatment relative to the DMSO control. KG1 cells were treated with DMSO or 100 nM Compound D for 4 hours and subjected to TMT proteomics analysis. The X-axis denotes the log 2-fold change of Compound D versus the DMSO control for each protein. P-values were corrected for multiple hypothesis testing using the Benjamini-Hoschberg method to arrive at an adjusted-P-value (adj-P, also known as a false discovery rate). The y-axis denotes the −log 10 (adj-P) values indicating statistical significance such that proteins lying above the dotted red line are statistically significant findings with adjusted P-values<0.05. FIG. 2B illustrates the immunoblot analysis of KG1 and U937 cells treated with DMSO or Compound D for 4 hours. Where indicated, cells were pretreated with Bortezomib or MLN4924 for 30 minutes. […]
Like all other cereblon modulators, Compound D contains a glutarimide ring (FIG. 1A) that can bind cereblon and redirect it to target neosubstrates for degradation. Thus, the effect of Compound D on the global proteome in AML cell line KG-1 was assessed using tandem mass tag (TMT) quantitative mass spectrometry.

cereblon to GSPT1 [3] = target: T4, cereblon to GSPT1 (Homo sapiens, UniProt P15170+Q96SW2); assay: Cereblon binding assay with cell extracts (anti-HA immunoprecipitation), GSPT1; conditions: wild-type FLAG-HA-CRBN; compound added directly into the binding assay
T4 construct: expressed in transfected cells; host or cells: 293FT CRBN-/- cells (transient transfection; cell extracts, anti-HA immunoprecipitation)
Text: as §1

cereblon to GSPT1 [4] = target: T5, cereblon to GSPT1 (Homo sapiens, UniProt P15170+Q96SW2, W386A/Y384A); assay: as above; conditions: FLAG-HA-YWAA mutant
T5 construct: expressed in transfected cells; host or cells: 293FT CRBN-/- cells (transient transfection; cell extracts, anti-HA immunoprecipitation)
Text: as §1

T3 sequence (P15170 1-637 isoform P15170-3): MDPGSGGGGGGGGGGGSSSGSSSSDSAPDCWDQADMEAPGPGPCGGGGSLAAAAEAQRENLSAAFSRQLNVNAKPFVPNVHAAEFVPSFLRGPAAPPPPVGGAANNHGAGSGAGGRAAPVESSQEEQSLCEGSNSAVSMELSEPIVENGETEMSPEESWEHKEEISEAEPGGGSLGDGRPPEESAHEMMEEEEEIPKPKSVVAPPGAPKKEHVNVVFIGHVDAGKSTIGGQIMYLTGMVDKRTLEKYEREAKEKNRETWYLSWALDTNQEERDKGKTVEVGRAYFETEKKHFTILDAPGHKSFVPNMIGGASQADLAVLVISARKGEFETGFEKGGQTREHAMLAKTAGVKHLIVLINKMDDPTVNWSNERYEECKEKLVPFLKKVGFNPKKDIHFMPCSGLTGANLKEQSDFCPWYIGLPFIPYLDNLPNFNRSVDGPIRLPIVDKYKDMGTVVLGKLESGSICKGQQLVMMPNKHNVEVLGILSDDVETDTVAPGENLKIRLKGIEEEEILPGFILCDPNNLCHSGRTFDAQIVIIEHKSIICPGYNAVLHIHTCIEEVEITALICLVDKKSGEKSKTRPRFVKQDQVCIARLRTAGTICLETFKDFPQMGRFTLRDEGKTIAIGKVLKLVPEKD
T3 sequence (Q96SW2 whole entry): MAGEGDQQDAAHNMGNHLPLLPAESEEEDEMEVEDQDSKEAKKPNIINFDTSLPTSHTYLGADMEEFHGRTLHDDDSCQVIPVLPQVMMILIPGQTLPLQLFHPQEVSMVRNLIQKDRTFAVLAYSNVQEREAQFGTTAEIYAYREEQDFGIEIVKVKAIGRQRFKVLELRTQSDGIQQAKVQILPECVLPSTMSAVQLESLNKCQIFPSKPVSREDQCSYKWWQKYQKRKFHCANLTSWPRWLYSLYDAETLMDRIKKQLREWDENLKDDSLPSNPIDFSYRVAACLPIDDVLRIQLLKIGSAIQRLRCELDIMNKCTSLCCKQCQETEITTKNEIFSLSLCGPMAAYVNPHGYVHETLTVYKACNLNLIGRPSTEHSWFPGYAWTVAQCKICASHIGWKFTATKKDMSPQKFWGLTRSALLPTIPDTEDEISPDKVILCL
T3 sequence (Q16531 whole entry partner): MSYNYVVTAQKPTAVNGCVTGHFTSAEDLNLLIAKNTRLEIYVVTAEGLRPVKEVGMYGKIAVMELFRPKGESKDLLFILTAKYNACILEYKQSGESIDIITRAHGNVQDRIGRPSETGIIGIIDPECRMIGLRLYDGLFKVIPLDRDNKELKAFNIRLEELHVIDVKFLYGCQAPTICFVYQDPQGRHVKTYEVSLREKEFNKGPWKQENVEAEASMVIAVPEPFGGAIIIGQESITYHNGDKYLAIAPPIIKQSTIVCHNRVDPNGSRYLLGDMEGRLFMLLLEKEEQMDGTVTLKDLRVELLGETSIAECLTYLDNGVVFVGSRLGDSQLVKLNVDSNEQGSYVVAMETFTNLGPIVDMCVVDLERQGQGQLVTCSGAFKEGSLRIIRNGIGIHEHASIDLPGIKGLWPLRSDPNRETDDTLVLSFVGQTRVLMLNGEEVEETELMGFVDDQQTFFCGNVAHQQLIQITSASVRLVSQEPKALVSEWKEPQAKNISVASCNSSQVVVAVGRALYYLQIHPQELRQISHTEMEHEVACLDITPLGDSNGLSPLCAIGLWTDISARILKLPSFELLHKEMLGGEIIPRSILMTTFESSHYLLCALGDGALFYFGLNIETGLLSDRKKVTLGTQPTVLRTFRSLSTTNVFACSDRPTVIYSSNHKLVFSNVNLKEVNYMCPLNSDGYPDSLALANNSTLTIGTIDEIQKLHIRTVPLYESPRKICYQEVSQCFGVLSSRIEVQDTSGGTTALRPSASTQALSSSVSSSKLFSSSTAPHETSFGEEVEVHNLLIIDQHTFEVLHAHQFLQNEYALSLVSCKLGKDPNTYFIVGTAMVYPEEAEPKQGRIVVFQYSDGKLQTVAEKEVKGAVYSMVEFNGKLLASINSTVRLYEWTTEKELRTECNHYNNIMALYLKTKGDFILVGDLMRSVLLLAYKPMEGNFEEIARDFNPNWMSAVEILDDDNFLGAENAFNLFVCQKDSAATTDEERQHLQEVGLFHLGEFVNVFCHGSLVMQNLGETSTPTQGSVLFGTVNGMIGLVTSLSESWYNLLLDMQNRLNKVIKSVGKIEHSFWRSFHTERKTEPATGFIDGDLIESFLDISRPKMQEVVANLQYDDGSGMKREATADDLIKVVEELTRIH
T2 sequence (Q96SW2 whole entry): as the sequence (Q96SW2 whole entry) above
T4 sequence (Q96SW2 whole entry): as above
T4 sequence (P15170 1-637 isoform P15170-3): as the sequence (P15170 1-637 isoform P15170-3) above
T1 sequence (P15170 1-637 isoform P15170-3): as above
T1 sequence (Q96SW2 whole entry): as the sequence (Q96SW2 whole entry) above
T1 sequence (Q16531 whole entry partner): as the sequence (Q16531 whole entry partner) above
T5 sequence (Q96SW2 whole entry Y384A/W386A): as the sequence (Q96SW2 whole entry) above, with Y384A, W386A counted along it
T5 sequence (P15170 1-637 isoform P15170-3, stated change not applied): as the sequence (P15170 1-637 isoform P15170-3) above

O=C1CCC(N2Cc3cc(CNC(=O)C(F)(F)c4ccc(Cl)cc4)ccc3C2=O)C(=O)N1 (centres unmarked) [Compound D, 2-(4-chlorophenyl)-N-((2-(2,6-dioxopiperidin-3-yl)-1-oxoisoindolin-5-yl)methyl)-2,2-difluoroacetamide]
Compound D-induced interaction of HA-tagged GSPT1 with endogenous cereblon after TSC1 loss [1]: significantly reduced the interaction between HA-tagged GSPT1 and endogenous cereblon induced by Compound D | mRNA level of ATF4 target genes ([2]; U937 24 hours, KG-1 200 nM for 2, 4 or 6 hours): marked induction of ATF4 target genes ATF3, CHOP and DDIT4 at the mRNA level | induction of ATF3 and CHOP after GCN2 loss ([2]; U937 GCN2-/-, 24 hours): largely, but not completely, blocked the induction of other ATF4 target genes ATF3 and CHOP | binding of cereblon to IKZF1 (cereblon to IKZF1): not IKZF1 | GSPT1 protein abundance (GSPT1): significant reduction of GSPT1 protein abundance | effect on the rest of the proteome (GSPT1): minimal effect on the rest of the proteome | binding of cereblon to GSPT1 (cereblon to GSPT1 [3]): promoted the binding of cereblon to GSPT1 | binding of cereblon mutant Y384A and W386A to GSPT1 (cereblon to GSPT1 [4]): completely abolished the binding of cereblon
